Assay results published in US20110306665A1, “COSMETIC PREPARATION, METHOD FOR PRODUCING SAME, COMPOSITION FOR COSMETIC PREPARATIONS, COSMETIC PREPARATION CONTAINING THE COMPOSITION FOR COSMETIC PREPARATIONS AND METHOD FOR PRODUCING SAME, AND CLEANSER FOR INDUSTRIAL USE” (The Nisshin OilliO Group, Ltd., priority 2009, published 2011).

Legend:
[1] = Moisturizing properties of cosmetic preparation compositions (massage oil, panel); type: in vivo, human; parameters: key: Good: Very soft and moistened touch was felt.; Moderate: Soft and moistened touch was felt.; Poor: No moistened touch was felt; conditions: neat cosmetic preparation composition (massage oil); 0.05 g, rubbed twenty times, wiped; seven panelists
Method: In Example 12, the PDO diisostearate obtained from Synthesis Example 1 was used as a cosmetic preparation composition (moisturizing ingredient) for a moisturizing cosmetic preparation (massage oil), and the moisturizing properties and the feeling of use thereof were evaluated.
The insides of the arms of seven panelists were washed with soap and water, and in addition, the washed surfaces were wiped with ethanol and naturally dried. Thereafter, each of the thus washed surfaces was evenly divided into eight equal areas, to which 0.05 g of the respective cosmetic preparation compositions of Example 12, and Comparative Examples 4 to 7 and 4A to 4C, was applied and massage was done by gently rubbing with a finger twenty times. Thereafter, the area was wiped with a dry cloth. On completion of this wiping, the moisturizing properties and the feeling of use of the respective cosmetic preparation compositions were evaluated in accordance with the same criteria as those of the moisturizing gels of Examples 6 to 8 mentioned above.

[2] = Viscosity by stress-controlled rheometer at 20° C.; type: physicochemical
Method: (§1) Next, the viscosity and the friction coefficient of the cosmetic preparation compositions of Example 12 and Comparative Examples 4 to 7 and 4A to 4C were measured.
The viscosity was measured by using a stress-controlled rheometer (Product No. RheoStress RS1, with a C60/2 Ti sensor, a product of Haake Company) at 20° C.

[3] = Friction coefficient on artificial leather (friction tester); type: physicochemical; conditions: 5 μL on artificial leather, pressure of 100 g
Method: as §1
The friction coefficient was measured by such a way that: 5 μL of each cosmetic preparation composition was applied to the surface of an artificial leather (Product Name: Supplale, a product of Idemitsu Technofine Co., Ltd.), and the applied surface was measured for the friction coefficient and the change in the value of the friction coefficient, by using a friction tester (Type: TL201Ts, a product of Trinity-Lab Co., Ltd.) with a pressure of 100 g.

[4] = Cleansing properties: removal of ink of an oil paint pen from the skin (panel); type: in vivo, human; conditions: black oil paint pen line on inside of arm, rubbed thirty times at about 200 g; seven panelists
Method: In Example 13, the cleansing properties and the low irritation properties of the PDO-C8/C10 diester obtained from Synthesis Example 2 as a cosmetic preparation composition for a cosmetic preparation to be used for the purpose of removing an ink of an oil paint pen (ink remover ingredient) from the skin, were evaluated. The insides of the arms of seven panelists were washed with soap and water, and in addition, the washed surfaces were wiped with ethanol and naturally dried. Thereafter, using a black oil paint pen (Product Name: […] product of Zebra Co., Ltd.), a line was painted respectively on the washed surfaces of the insides of their arms. Next, the painted line was evenly divided into seven equal areas. […] From the proportion of the line painted with the oil paint pen which had been able to be removed by this removal operation, the cleansing properties of the respective cosmetic preparation compositions as an ink remover ingredient were evaluated in accordance with the following criteria. The results of their averages are shown in Table 14. <Evaluation Criteria of Cleansing Properties> Excellent: High cleansing properties, meaning that a proportion of 75 to 100% in the line painted with the oil paint pen was able to be removed. Good: Relatively high cleansing properties, meaning that a proportion of 50 to 75% in the line painted with the oil paint pen was able to be removed. Moderate: Some cleansing properties, meaning that only a proportion of 25 to 50% in the line painted with the oil paint pen was able to be removed. Poor: Weak cleansing properties, meaning that only a proportion of 0 to 25% in the line painted with the oil paint pen was able to be removed.

[5] = Low irritation properties: 24 hours airtight application with Finn Chamber (panel); type: in vivo, human
Method: Moreover, the low irritation properties of the respective cosmetic preparation compositions as an ink remover ingredient were evaluated in the following manner. The insides of the arms of seven panelists were washed with soap and water, and in addition, the washed surfaces were wiped with ethanol and naturally dried. Next, each of the thus washed surfaces was evenly divided into seven equal areas, to which 0.01 g of the respective cosmetic preparation compositions of Examples 13 and 13A to 13D, and Comparative Examples 8 and 9, was applied airtightly by using Finn Chamber (a product of Epitest Ltd Oy). After 24 hours, the Finn Chamber and the cosmetic preparation compositions were taken off. After 1 hour, the condition of the skin was observed. The low irritation properties of the respective cosmetic preparation compositions as an ink remover ingredient were evaluated in accordance with the following criteria. <Evaluation Criteria of Low Irritation Properties> Good: No change was found in the skin of the airtightly applied part. Moderate: A slight rash was found in the skin of the airtightly applied part.

[6] = Cleansing properties of industrial use cleansers: oil paint pen ink on coated steel panel; conditions: industrial use cleanser; black oil paint pen line on coated steel panel, rubbed thirty times at about 200 g
Method: The cleansing properties of the respective industrial use cleansers as an agent to remove an oil soluble colorant from a coated steel panel were evaluated in the following manner.
First, an electro-galvanized steel panel was coated with commercially available automotive paints, namely, a primer surfacer (Product Name: Primer White (a product of Musashi Holt Co., Ltd.)), a white automotive paint (Product Name: Antirust Paint (Color No. 041) (a product of Musashi Holt Co., Ltd.)), and a clear paint (Product Name: Topcoat Clear (a product of Musashi Holt Co., Ltd.)), by spraying according to the usage instruction of each product, and dried at 25° C. for 24 hours. By so doing, a coated steel panel for the test was obtained.
Next, using a black oil paint pen (Product Name: Mckee Care, a product of Zebra Co., Ltd.), a line was painted on the surface of the coated steel panel, and dried at 25° C. for 24 hours.
Subsequently, the painted line was evenly divided into seven equal areas. Each area was rubbed with an absorbent cotton that had been impregnated with, but to a degree which would not allow a leakage of, the industrial use cleanser of Examples 14, 14A, and 14B, or the oil agent of Comparative Examples 10, 11, 11A, and 11B, while loading a pressure of about 200 g in a reciprocating manner thirty times. From the proportion of the ink of the line painted with the oil paint pen which had been able to be removed by this removal operation, the cleansing properties of the respective industrial use cleansers of Examples 14, 14A, and 14B, or the respective oil agents of Comparative Examples 10, 11, 11A, and 11B, as the agent to remove the oil soluble colorant, were evaluated by eye in accordance with the following criteria.
<Evaluation Criteria of Cleansing Properties>
Excellent: High cleansing properties, meaning that a proportion of 75 to 100% in the line painted with the oil paint pen on the coated steel panel was able to be removed.
Good: Relatively high cleansing properties, meaning that a proportion of 50 to 75% in the line painted with the oil paint pen on the coated steel panel was able to be removed.
Moderate: Some cleansing properties, meaning that only a proportion of 25 to 50% in the line painted with the oil paint pen on the coated steel panel was able to be removed.
Poor: Weak cleansing properties, meaning that only a proportion of 0 to 25% in the line painted with the oil paint pen on the coated steel panel was able to be removed.
The cleansing properties and the low corrosion properties of the respective industrial use cleansers as an agent to remove an oil soluble colorant for a coated steel panel were evaluated in the same manner as those of the industrial use cleanser in Example 14. […]

[7] = Oxidative stability by conductometric determination method (CDM, Rancimat); type: physicochemical; conditions: 3 g, 120° C., air flow 8 L/h
Method: Furthermore, the oxidative stability was compared between the cosmetic preparation compositions of Example 12 and Comparative Example 4. Specifically speaking, these cosmetic preparation compositions were evaluated for the oxidative stability by a conductometric determination method (CDM method). […] A greater increase in the conductivity per unit time means a lower oxidative stability of the cosmetic preparation composition. Conversely, a smaller increase in the conductivity per unit time means a higher oxidative stability of the cosmetic preparation composition. The conductivity was measured by using a rancimat instrument (Type: Rancimat 743, a product of Metrohm-Sibata Ltd.) in a condition where 3 g of the sample was examined under heating at 120° C. with an air flow rate of 8 L/h.

[8] = 0.01 g airtight in Finn Chamber 24 hours, skin observed 1 hour after removal, seven panelists

| Compound | Moisturizing properties [1] | Viscosity (mPa · s) (20° C.) [2] | Changed value of friction coefficient [3] | Friction coefficient [3] | Cleansing properties [4] | Low irritation properties [5, 8] | Cleansing properties [6] | further results |
| --- | --- | --- | --- | --- | --- | --- | --- | --- |
| CCCCCCCCCCCCCCCCCC(=O)OCCCOC(=O)CCCCCCCCCCCCCCCCC [Comparative Example 4A, PDO distearate] | Moderate | Not measurable | – | – | – | – | – | – |
| CC(CCC(C(=O)OCCCOC(=O)C(CCC(C)CC(C)(C)C)C(C)CC(C)(C)C)C(C)CC(C)(C)C)CC(C)(C)C (centres unmarked) [Comparative Example 4B] | Good | 1003 mPa · s | 0.0080 | 0.170 | – | – | – | – |
| CC(C)CCCC(C)CCCC(C)CCCCC(C)CCCC(C)CCCC(C)C (centres unmarked) [Comparative Example 5, squalane] | Good | 36.0 mPa · s | 0.0062 | 0.155 | – | – | – | – |
| CC(C)CCCCCCOC(=O)CCCCCC(C)C [Comparative Example 8, isononyl isononanoate, reference compound] | – | – | – | – | Good (Relatively high cleansing properties, meaning that a proportion of 50 to 75% in the line painted with the oil paint pen was able to be removed.) | Poor | – | Condition of the skin of the airtightly applied part ([5]; 0.01 g airtight in Finn Chamber 24 hours, skin observed 1 hour after removal): a notable rash was found |
| CCO [Comparative Example 10, ethanol, reference compound] | – | – | – | – | – | – | Excellent (High cleansing properties, meaning that a proportion of 75 to 100% in the line painted with the oil paint pen on the coated steel panel was able to be removed.) | – |
| CCCCCCCC(=O)OCCCOC(=O)CCCCCCC [Example 13A, PDO-di-n-Octanoic Acid Ester] | – | – | – | – | Excellent (High cleansing properties, meaning that a proportion of 75 to 100% in the line painted with the oil paint pen was able to be removed.) | Moderate | Excellent (High cleansing properties, meaning that a proportion of 75 to 100% in the line painted with the oil paint pen on the coated steel panel was able to be removed.) | – |
| CCCCCCCCCC(=O)OCCCOC(=O)CCCCCCCCC [Example 13D, PDO-di-n-decanoic acid ester] | – | – | – | – | Poor (Weak cleansing properties, meaning that only a proportion of 0 to 25% in the line painted with the oil paint pen was able to be removed.) | – | Poor (Weak cleansing properties, meaning that only a proportion of 0 to 25% in the line painted with the oil paint pen on the coated steel panel was able to be removed.) | Low irritation properties ([5]; in vivo): Good |
| PDO diisostearate [Example 12] | Good | 80.0 mPa · s | 0.0045 | 0.140 | – | – | – | Conductivity (CDM method) after 5 hours ([7]; after 5 hours): 17 μS/cm; Conductivity (CDM method) after 10 hours ([7]; after 10 hours): 45 μS/cm; Conductivity (CDM method) after 15 hours ([7]; after 15 hours): 83 μS/cm; Conductivity (CDM method) after 20 hours ([7]; after 20 hours): 127 μS/cm |
| PDO-C8/C10 diester [Example 13] | – | – | – | – | Excellent (High cleansing properties, meaning that a proportion of 75 to 100% in the line painted with the oil paint pen was able to be removed.) | Good | Excellent (High cleansing properties, meaning that a proportion of 75 to 100% in the line painted with the oil paint pen on the coated steel panel was able to be removed.) | – |
| PDO-C8/C10=25:75 diester [Example 13C] | – | – | – | – | Moderate (Some cleansing properties, meaning that only a proportion of 25 to 50% in the line painted with the oil paint pen was able to be removed.) | Good | Moderate (Some cleansing properties, meaning that only a proportion of 25 to 50% in the line painted with the oil paint pen on the coated steel panel was able to be removed.) | – |
| PDO-C8/C10=50:50 diester [Example 13B] | – | – | – | – | Good (Relatively high cleansing properties, meaning that a proportion of 50 to 75% in the line painted with the oil paint pen was able to be removed.) | Good | Good (Relatively high cleansing properties, meaning that a proportion of 50 to 75% in the line painted with the oil paint pen on the coated steel panel was able to be removed.) | – |
| PDO-Garbett isostearic acid diester [Comparative Example 4C] | Poor | 57.5 mPa · s | 0.0056 | 0.147 | – | – | – | – |
